Experiment [1] addresses Mitogen-activated protein kinase 4 (Homo sapiens) (UniProt P31152). The experiment can be described thus: Inhibition of ERK4 (unknown origin) assessed as residual activity at 100 nM by KINOMEscan analysis relative to control.
Experiment [2] has as its target Glycogen synthase kinase-3 alpha (Homo sapiens) (UniProt P49840). The experiment can be described thus: Inhibition of GSK3A (unknown origin) assessed as residual activity at 100 nM by KINOMEscan analysis relative to control.
Experiment [3] relates to Mast/stem cell growth factor receptor Kit (Homo sapiens), P10721 [V559D]. Briefly: Inhibition of KIT V559D mutant (unknown origin) assessed as residual activity at 100 nM by KINOMEscan analysis relative to control.
In experiment [4] the target is Serine/threonine-protein kinase PAK 5 (Homo sapiens) (UniProt Q9P286). The experiment can be described thus: Inhibition of PAK7 (unknown origin) assessed as residual activity at 100 nM by KINOMEscan analysis relative to control.
Experiment [5] deals with T1, Serine/threonine-protein kinase D1 (Homo sapiens) (UniProt Q15139).
T1 sequence (whole entry): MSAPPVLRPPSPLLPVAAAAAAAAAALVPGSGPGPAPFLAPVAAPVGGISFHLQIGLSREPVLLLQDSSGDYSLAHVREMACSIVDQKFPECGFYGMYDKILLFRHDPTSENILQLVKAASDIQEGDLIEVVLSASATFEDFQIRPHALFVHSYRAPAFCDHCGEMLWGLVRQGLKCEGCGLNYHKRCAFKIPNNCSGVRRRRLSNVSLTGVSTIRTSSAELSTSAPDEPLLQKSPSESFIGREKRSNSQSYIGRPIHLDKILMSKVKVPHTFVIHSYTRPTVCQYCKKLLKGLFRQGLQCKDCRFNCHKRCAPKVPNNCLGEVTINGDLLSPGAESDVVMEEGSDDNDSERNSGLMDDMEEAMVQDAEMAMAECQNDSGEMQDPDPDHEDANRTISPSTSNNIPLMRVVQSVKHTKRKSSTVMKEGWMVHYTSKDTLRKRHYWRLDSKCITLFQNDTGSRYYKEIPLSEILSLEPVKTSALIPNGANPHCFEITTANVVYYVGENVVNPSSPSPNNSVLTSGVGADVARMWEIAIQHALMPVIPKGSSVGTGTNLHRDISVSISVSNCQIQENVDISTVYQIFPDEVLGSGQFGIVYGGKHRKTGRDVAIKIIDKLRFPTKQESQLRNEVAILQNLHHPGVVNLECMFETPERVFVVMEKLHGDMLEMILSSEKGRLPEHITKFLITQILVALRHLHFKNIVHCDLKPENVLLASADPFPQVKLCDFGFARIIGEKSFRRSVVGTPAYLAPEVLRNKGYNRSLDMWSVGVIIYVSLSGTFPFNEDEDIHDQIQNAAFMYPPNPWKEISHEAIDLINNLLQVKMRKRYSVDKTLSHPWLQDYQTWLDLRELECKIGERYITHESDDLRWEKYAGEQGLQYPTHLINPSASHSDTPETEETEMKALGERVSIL
Briefly: Inhibition of PRKD1 (unknown origin) assessed as residual activity at 100 nM by KINOMEscan analysis relative to control.

Experiment [6] has as its target T2, Serine/threonine-protein kinase Nek2 (Homo sapiens) (UniProt P51955).
T2 sequence (whole entry): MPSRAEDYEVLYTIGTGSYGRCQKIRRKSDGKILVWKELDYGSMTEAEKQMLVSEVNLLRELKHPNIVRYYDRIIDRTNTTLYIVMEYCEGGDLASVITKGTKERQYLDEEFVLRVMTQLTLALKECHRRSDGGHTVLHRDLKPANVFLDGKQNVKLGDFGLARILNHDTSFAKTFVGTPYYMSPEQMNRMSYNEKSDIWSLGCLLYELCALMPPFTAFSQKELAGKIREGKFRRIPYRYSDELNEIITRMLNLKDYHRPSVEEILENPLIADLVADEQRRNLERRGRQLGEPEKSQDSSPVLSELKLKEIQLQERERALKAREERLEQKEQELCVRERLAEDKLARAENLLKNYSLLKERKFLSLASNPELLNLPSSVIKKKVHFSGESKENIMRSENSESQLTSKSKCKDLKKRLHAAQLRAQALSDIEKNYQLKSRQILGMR
The experiment can be described thus: Inhibition of NEK2 (unknown origin) assessed as residual activity at 100 nM by KINOMEscan analysis relative to control.

Experiment [7] has as its target Serine/threonine-protein kinase SBK1 (Homo sapiens) (UniProt Q52WX2). Briefly: Inhibition of SBK1 (unknown origin) assessed as residual activity at 100 nM by KINOMEscan analysis relative to control.
The target in experiment [8] is MAP/microtubule affinity-regulating kinase 3 (Homo sapiens) (UniProt P27448). The experiment can be described thus: Inhibition of MARK3 (unknown origin) assessed as residual activity at 100 nM by KINOMEscan analysis relative to control.
In experiment [9] the target is Serine/threonine-protein kinase PAK 3 (Homo sapiens) (UniProt O75914). The experiment can be described thus: Inhibition of PAK3 (unknown origin) assessed as residual activity at 100 nM by KINOMEscan analysis relative to control.
Sequence of Serine/threonine-protein kinase PAK 3 (Homo sapiens) (O75914 whole entry, looked up): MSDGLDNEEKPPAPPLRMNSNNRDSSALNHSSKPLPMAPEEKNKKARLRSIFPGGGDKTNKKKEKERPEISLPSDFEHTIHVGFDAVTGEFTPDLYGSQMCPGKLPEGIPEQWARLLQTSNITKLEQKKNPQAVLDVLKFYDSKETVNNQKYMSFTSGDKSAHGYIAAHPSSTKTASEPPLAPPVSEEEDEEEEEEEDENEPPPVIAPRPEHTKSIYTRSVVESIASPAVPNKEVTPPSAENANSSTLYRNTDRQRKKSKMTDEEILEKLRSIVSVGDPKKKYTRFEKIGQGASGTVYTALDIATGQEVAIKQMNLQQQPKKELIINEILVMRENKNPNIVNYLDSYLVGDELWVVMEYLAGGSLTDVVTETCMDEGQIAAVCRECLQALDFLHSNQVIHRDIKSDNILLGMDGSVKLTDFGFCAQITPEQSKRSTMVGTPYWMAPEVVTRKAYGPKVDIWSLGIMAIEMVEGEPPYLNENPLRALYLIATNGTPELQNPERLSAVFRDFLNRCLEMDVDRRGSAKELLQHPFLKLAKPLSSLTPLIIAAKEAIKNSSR

Sequence of MAP/microtubule affinity-regulating kinase 3 (Homo sapiens) (P27448 whole entry, looked up): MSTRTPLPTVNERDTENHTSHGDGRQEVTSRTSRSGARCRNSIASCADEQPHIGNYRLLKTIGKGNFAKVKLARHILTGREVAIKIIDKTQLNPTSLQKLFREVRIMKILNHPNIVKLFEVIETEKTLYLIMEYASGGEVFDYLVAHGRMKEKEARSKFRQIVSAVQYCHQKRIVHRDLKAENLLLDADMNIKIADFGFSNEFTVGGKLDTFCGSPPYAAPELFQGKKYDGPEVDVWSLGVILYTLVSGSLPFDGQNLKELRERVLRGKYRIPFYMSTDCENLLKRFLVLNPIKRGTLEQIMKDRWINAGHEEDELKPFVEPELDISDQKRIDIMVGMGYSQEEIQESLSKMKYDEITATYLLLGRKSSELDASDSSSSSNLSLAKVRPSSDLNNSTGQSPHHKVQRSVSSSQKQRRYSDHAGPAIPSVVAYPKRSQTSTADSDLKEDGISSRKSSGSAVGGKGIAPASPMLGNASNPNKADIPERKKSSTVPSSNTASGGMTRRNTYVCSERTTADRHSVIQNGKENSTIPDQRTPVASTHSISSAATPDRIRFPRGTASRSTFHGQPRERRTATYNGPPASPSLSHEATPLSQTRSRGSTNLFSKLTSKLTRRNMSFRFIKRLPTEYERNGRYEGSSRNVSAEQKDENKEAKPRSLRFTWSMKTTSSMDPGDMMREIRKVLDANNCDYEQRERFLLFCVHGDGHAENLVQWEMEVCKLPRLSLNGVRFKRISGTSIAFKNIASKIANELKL
Sequence of Glycogen synthase kinase-3 alpha (Homo sapiens) (P49840 2-483 limits assumed): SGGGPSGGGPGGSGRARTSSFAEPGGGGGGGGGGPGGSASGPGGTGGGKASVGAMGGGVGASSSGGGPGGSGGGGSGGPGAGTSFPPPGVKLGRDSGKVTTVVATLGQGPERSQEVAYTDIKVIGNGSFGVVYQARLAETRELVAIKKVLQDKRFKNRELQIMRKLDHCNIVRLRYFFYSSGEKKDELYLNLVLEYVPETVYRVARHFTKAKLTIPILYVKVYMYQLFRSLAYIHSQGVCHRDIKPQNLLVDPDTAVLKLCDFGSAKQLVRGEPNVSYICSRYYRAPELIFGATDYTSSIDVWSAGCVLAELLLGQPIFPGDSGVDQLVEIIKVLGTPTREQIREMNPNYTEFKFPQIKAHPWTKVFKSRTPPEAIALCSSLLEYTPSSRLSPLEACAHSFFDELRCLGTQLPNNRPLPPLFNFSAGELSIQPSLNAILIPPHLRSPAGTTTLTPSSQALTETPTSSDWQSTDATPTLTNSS
Sequence of Mitogen-activated protein kinase 4 (Homo sapiens) (P31152 whole entry): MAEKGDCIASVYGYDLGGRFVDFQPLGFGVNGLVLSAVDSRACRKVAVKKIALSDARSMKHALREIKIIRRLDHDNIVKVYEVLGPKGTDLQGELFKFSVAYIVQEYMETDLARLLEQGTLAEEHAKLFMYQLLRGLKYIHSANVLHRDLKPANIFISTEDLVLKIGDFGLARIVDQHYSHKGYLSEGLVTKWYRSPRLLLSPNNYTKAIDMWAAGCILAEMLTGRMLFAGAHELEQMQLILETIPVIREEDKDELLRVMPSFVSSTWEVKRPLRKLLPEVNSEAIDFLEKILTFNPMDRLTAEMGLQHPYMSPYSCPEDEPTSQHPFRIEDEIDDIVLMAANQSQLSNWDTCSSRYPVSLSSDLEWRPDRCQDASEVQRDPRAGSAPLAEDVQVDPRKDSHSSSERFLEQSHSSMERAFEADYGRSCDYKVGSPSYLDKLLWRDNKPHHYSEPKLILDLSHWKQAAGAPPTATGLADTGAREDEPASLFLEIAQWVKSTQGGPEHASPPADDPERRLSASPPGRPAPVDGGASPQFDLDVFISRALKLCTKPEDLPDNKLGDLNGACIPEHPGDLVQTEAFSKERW
Sequence of Serine/threonine-protein kinase PAK 5 (Homo sapiens) (Q9P286 whole entry, looked up): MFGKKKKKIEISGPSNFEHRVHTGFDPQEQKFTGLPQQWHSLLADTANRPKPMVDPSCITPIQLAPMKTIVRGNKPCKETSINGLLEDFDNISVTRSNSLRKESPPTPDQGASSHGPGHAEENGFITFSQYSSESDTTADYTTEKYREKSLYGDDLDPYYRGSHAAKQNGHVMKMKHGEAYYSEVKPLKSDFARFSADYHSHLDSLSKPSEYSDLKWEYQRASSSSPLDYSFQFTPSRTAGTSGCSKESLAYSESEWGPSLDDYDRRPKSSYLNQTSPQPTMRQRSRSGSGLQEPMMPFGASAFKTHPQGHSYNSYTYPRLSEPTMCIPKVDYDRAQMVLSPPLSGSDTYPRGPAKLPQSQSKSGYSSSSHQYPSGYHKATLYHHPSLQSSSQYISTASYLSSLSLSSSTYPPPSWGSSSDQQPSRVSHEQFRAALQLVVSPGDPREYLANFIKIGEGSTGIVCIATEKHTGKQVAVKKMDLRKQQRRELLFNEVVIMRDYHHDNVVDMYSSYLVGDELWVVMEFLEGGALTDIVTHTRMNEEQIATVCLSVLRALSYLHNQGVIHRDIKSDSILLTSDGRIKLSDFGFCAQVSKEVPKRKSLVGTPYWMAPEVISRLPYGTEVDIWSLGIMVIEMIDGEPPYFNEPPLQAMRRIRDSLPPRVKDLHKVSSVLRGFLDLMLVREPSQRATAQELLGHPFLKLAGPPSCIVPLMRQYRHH
Sequence of Mast/stem cell growth factor receptor Kit (Homo sapiens), P10721 [V559D] (P10721 whole entry V559D): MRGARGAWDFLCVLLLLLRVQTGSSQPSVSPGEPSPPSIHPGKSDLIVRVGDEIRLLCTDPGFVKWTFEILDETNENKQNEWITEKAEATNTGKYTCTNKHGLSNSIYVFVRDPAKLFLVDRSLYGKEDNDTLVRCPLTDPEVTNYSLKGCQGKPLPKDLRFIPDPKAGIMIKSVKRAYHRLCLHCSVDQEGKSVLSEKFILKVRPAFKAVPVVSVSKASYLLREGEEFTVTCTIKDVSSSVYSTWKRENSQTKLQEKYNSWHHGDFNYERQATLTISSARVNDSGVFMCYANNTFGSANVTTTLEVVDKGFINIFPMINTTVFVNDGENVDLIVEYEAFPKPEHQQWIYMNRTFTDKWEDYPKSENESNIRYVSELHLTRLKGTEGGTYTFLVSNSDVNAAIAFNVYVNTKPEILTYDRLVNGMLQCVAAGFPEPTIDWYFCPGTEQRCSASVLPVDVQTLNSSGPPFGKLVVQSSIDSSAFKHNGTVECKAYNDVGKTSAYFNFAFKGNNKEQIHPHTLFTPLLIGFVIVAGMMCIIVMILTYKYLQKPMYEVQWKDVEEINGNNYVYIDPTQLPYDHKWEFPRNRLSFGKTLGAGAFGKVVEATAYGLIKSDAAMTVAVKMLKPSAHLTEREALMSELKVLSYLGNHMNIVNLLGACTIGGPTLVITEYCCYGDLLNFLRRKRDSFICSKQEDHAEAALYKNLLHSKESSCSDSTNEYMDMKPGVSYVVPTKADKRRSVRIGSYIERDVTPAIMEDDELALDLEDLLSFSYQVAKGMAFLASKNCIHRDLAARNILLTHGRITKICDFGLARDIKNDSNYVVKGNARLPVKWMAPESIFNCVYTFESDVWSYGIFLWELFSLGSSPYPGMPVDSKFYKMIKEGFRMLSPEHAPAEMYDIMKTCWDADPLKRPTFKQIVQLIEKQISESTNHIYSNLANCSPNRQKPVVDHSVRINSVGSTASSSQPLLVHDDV
Sequence of Serine/threonine-protein kinase SBK1 (Homo sapiens) (Q52WX2 whole entry): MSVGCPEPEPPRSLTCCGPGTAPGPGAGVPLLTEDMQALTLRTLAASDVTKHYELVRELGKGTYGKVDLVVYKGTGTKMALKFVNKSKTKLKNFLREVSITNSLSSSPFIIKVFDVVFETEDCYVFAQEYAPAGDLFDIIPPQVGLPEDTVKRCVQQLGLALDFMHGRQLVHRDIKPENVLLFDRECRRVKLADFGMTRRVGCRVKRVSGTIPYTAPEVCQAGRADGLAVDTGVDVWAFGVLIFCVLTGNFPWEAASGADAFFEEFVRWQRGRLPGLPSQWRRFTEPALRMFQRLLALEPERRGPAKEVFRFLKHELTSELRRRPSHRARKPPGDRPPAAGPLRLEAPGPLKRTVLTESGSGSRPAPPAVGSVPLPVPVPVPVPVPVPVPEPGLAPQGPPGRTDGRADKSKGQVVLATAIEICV

For `COc1cc2ncnc(N[C@H](C)c3cccc4ccccc34)c2cc1OC`, the Activity in experiment [1] is 100%; in experiment [2], 75%; in experiment [3], 100%; in [4] it was 100%; in experiment [5], 84%; in [6], 100%. In addition, the figures for the Activity in experiment [7], in experiment [8] and in experiment [9] were 81%, 88% and 74%, respectively.

Values taken from ChEMBL document CHEMBL5678818, “Discovery of potent SOS1 inhibitors that block RAS activation via disruption of the RAS-SOS1 interaction” (Proc Natl Acad Sci U S A, 2019).
